According to patent US20230285431A1, “Human Milk Oligosaccharide for Improving Health of Intestinal Microenvironment and Use Thereof” (Inner Mongolia Yili Industrial Group Co., Ltd., priority 2020, published 2023):
“Also recorded” adds a separate entry of the source.

Columns and labels:
Format in all cases: cell-based
[1] = tested on: infant fecal flora of the simulated distal colon; assay: Small batch fermentation with each HMO in simulated distal colon environment; settings: for pH changes of the distal colon over time: starting pH 6.5, FIG. 3B; for production of isobutyric acid, distal colon / production of isovaleric acid, distal colon: small batch fermentation; for production of isobutyric acid, distal colon: FIG. 6A; for production of isovaleric acid, distal colon: FIG. 6B; for formic acid produced, distal colon / propionic acid produced, distal colon / acetic acid produced, distal colon / butyric acid produced, distal colon: 48 hours of fermentation; for formic acid produced, distal colon: FIG. 13; for propionic acid produced, distal colon: FIG. 15; for total short chain fatty acids produced, distal colon: FIG. 12; for acetic acid produced, distal colon: FIG. 14; for butyric acid produced, distal colon: FIG. 16
Source text: (§1) Using a SHIME device (see the schematic diagram in FIG. 1A), fresh fecal samples containing bacteria flora were obtained from a healthy infant naturally delivered and exclusively breastfed, and inoculated into containers corresponding to the proximal colon and distal colon. Food material was fed to the stomach/small intestine end of the device three times a day for two weeks to support the growth and colonization of the flora in the proximal colon and distal colon. Here, the food material that was digested by the small intestine and entered the colon was prepared on the basis of the standard food material provided by ProDigest, the manufacturer of the SHIME device, with adjustment to the ratio of lactose, casein and whey protein; the standard food material was composed of: pectin (1 g/L), glucose (1 g/L), starch (1 g/L), cellobiose (1 g/L), proteose peptone (2 g/L), mucin (6 g/L)), lactose (2.1 g/L), casein (0.2 g/L), whey-lactalbumin (2.7 g/L), L-cysteine hydrochloride (0.2 g/L). The ratio of lactose, casein and whey protein in the food materials in each experiment of the present disclosure was adjusted to about 12:1:15, with reference to Le Blay et al. (2010), and stable and balanced nutrients were maintained, so as to simulate the food composition to which the infant's intestinal microecology may be exposed during regular breastfeeding or infant formula feeding. After the infant fecal flora was stabilized in the SHIME model for two weeks, the proximal colon and distal colon were sampled, aliquoted in glycerol to form a stock solution, and stored under anaerobic conditions at −80° C.
After the infant flora was inoculated into the SHIME model and stably grown for 2 weeks (as described in the aforementioned “Fecal inoculation and culture in SHIME device”), 10 mL of the flora in the proximal colon and distal colon was taken and respectively transferred to fermentation flasks under anaerobic conditions for small batch fermentation. On the basis of 43 mL basal buffer (for adjusting pH and simulating the corresponding colonic environment), each fermentation flask also contained 20 mL PBS buffer (for dissolving and introducing the HMO test substance) supplemented with different amounts of HMOs, so that the final concentration of each HMO was 0.02 g/L, 0.2 g/L, or 2 g/L, the pH of the proximal colon was set to 5.6, and the pH of the distal colon was set to 6.5. The flasks were incubated at 37° C. with shaking. During incubation, the pressure was measured at 0, 6 hours, 24 hours and 48 hours, followed by sampling for detection of pH and short chain fatty acids. Measurements were repeated three times.
During the HMO intervention, the gas production in each group was compared by measuring changes in pressure. Short chain fatty acid analysis including isobutyric acid, isovaleric acid, butyric acid, propionic acid, acetic acid, and formic acid, were analyzed by HPLC.
(§2) A two-tailed, paired t-test was performed on the data results. When there is a significant difference between two groups, and p<0.05, it is indicated with an asterisk *. Two asterisks ** indicate p<0.01. Three asterisks *** indicate p<0.001.

[2] = tested on: infant fecal flora of the simulated distal colon (SHIME model); assay: SHIME fermentation with each HMO in simulated distal colon environment; settings: for decrease ratio of butyric acid, Day 14 versus Day 1, compared to control without HMO: 14 days of fermentation; for Butyric acid, Log2 (day 14/day 1): HMO 2 g/L in feed, 14 days of HMO intervention, biological replicate 1
Source text: as §1
The infant fecal flora sampled and stored as in “Fecal inoculation and culture in SHIME device” was inoculated into the SLIME model to investigate the fermentation of HMOs in the SHIME device. Two batches of experiments were done sequentially, and three sample groups (or control) were simultaneously done in each batch of experiments. In three sets of experimental devices, the devices simulating the proximal colon and distal colon were inoculated separately (see the schematic diagram of FIG. 1B). Food material was fed three times a day, and after 4 days of incubation, an HMO was blended into the feed food material (no HMO was added to the control group). 280 mg of HMO (at a concentration of 2 g/L) and 60 mL of pancreatic juice were added into 140 mL of a stock solution for each food material. Only one experiment was performed for each set of HMO and control, so the biological replicate was 1. SHIME fermentation continued until Day 14 after the HMO intervention, and samples were taken for detection at different time periods during the fermentation period.
as §2

[3] = tested on: infant fecal flora of the simulated proximal colon; assay: Small batch fermentation with each HMO in simulated proximal colon environment; settings: for formic acid produced, proximal colon: FIG. 8; for acetic acid produced, proximal colon: FIG. 9; for total short chain fatty acids produced, proximal colon: FIG. 7; for pressure changes (gas production) in the proximal colon: FIG. 4A
Source text: Using a SHIME device (see the schematic diagram in FIG. 1A), fresh fecal samples containing bacteria flora were obtained from a healthy infant naturally delivered and exclusively breastfed, and inoculated into containers corresponding to the proximal colon and distal colon. Food material was fed to the stomach/small intestine end of the device three times a day for two weeks to support the growth and colonization of the flora in the proximal colon and distal colon. Here, the food material that was digested by the small intestine and entered the colon was prepared on the basis of the standard food material provided by ProDigest, the manufacturer of the SHIME device, with adjustment to the ratio of lactose, casein and whey protein; the standard food material was composed of: pectin (1 g/L), glucose (1 g/L), starch (1 g/L), cellobiose (1 g/L), proteose peptone (2 g/L), mucin (6 g/L)), lactose (2.1 g/L), casein (0.2 g/L), whey-lactalbumin (2.7 g/L), L-cysteine hydrochloride (0.2 g/L). The ratio of lactose, casein and whey protein in the food materials in each experiment of the present disclosure was adjusted to about 12:1:15, with reference to Le Blay et al. (2010), and stable and balanced nutrients were maintained, so as to simulate the food composition to which the infant's intestinal microecology may be exposed during regular breastfeeding or infant formula feeding. After the infant fecal flora was stabilized in the SHIME model for two weeks, the proximal colon and distal colon were sampled, aliquoted in glycerol to form a stock solution, and stored under anaerobic conditions at −80° C. After the infant flora was inoculated into the SHIME model and stably grown for 2 weeks (as described in the aforementioned “Fecal inoculation and culture in SHIME device”), 10 mL of the flora in the proximal colon and distal colon was taken and respectively transferred to fermentation flasks under anaerobic conditions for small batch fermentation. On the basis of 43 mL basal buffer (for adjusting pH and simulating the corresponding colonic environment), each fermentation flask also contained 20 mL PBS buffer (for dissolving and introducing the HMO test substance) supplemented with different amounts of HMOs, so that the final concentration of each HMO was 0.02 g/L, 0.2 g/L, or 2 g/L, the pH of the proximal colon was set to 5.6, and the pH of the distal colon was set to 6.5. The flasks were incubated at 37° C. with shaking. During incubation, the pressure was measured at 0, 6 hours, 24 hours and 48 hours, followed by sampling for detection of pH and short chain fatty acids. Measurements were repeated three times. During the HMO intervention, the gas production in each group was compared by measuring changes in pressure. Short chain fatty acid analysis including isobutyric acid, isovaleric acid, butyric acid, propionic acid, acetic acid, and formic acid, were analyzed by HPLC. A two-tailed, paired t-test was performed on the data results. When there is a significant difference between two groups, and p<0.05, it is indicated with an asterisk *. Two asterisks ** indicate p<0.01. Three asterisks *** indicate p<0.001.

[4] = HMO 2 g/L, 48 hours of fermentation

Row | Compound | pH changes of the distal colon over time ([1]; HMO 2 g/L) | production of isobutyric acid, distal colon [1] | production of isovaleric acid, distal colon [1] | decrease ratio of butyric acid, Day 14 versus Day 1, compared to control without HMO [2] | Butyric acid, Log2 (day 14/day 1) [2] | formic acid produced, distal colon [1] | propionic acid produced, distal colon [1] | total short chain fatty acids produced, distal colon ([1]; HMO 2 g/L, 24 hours) | formic acid produced, proximal colon ([3]; 48 hours of fermentation) | acetic acid produced, proximal colon ([3]; 48 hours of fermentation) | total short chain fatty acids produced, proximal colon ([3]; HMO 2 g/L, 24 hours of fermentation) | total short chain fatty acids produced, proximal colon [3, 4] | pressure changes (gas production) in the proximal colon ([3]; HMO 2 g/L) | acetic acid produced, distal colon [1] | butyric acid produced, distal colon [1] | total short chain fatty acids produced, distal colon ([1]; HMO 0.02 g/L, 6 hours) | propionic acid produced, proximal colon ([3]; 48 hours of fermentation, FIG. 10) | butyric acid produced, proximal colon ([3]; 48 hours of fermentation, FIG. 11) | pressure changes (gas production) in the proximal colon ([3]; HMO 0.2 g/L) | pH changes over time ([1]; HMO 0.2 g/L, colon section not given)
1 | 2′-fucosyllactose [2′-FL] | tend to significantly lower the pH | significantly reduce | most potent; also recorded: significantly reduce | good improving effect compared to the control | −0.67 |  |  |  |  |  |  |  |  |  |  |  |  |  |  | 
2 | 3-fucosyllactose [3-FL] | tend to significantly lower the pH | significantly reduce | significantly reduce |  | −0.33 | more significant | more significant | relatively more short chain fatty acids |  |  |  |  |  |  |  |  |  |  |  | 
3 | CC(=O)N[C@H]1[C@H]([C@H](O)[C@H](O)CO)O[C@@](O[C@H]2[C@@H](O)[C@@H](CO)O[C@@H](O[C@H]3[C@H](O)[C@@H](O)C(O)O[C@@H]3CO)[C@@H]2O)(C(=O)O)C[C@@H]1O (stereo partly drawn) [3-SL, 3′-sialyl lactose] |  | significantly reduce |  | the smallest | −0.13 | more significant | more significant |  | significantly increased | significantly increased; also recorded: more significant | produces more SCFA | significantly more SCFA | higher pressure | more significant | significantly increased | relatively more short chain fatty acids |  |  |  | 
4 | CC(=O)N[C@H]1[C@H]([C@H](O)[C@H](O)CO)O[C@@](OC[C@H]2O[C@@H](O[C@H]3[C@H](O)[C@@H](O)[C@H](O)O[C@@H]3CO)[C@H](O)[C@@H](O)[C@H]2O)(C(=O)O)C[C@@H]1O [6-SL, 6′-sialyl lactose] |  |  |  | good improving effect compared to the control | −0.66 | more significant |  | relatively more short chain fatty acids | significantly increased; also recorded: more significant | significantly increased |  | significantly more SCFA | higher pressure | more significant | significantly increased |  | significantly increased | significantly increase |  | 
5 | CC(=O)N[C@H]1[C@H](O[C@H]2[C@@H](O)[C@@H](CO)O[C@@H](O[C@H]3[C@H](O)[C@@H](O)C(O)O[C@@H]3CO)[C@@H]2O)O[C@H](CO)[C@@H](O)[C@@H]1O[C@@H]1O[C@H](CO)[C@H](O)[C@H](O)[C@H]1O (stereo partly drawn) [LNT, Lacto-N-tetraose] |  | significantly reduce |  | good improving effect compared to the control | −0.70 | more significant |  |  |  |  |  |  |  | more significant |  | relatively more short chain fatty acids |  |  | tends to produce gas better | tends to better lower the pH
